ChEMBL document CHEMBL1139088, “Antihyperglycemic and antidyslipidemic agent from Aegle marmelos” (2007)
Each block holds one compound with its values, some of them ahead of it. Active and inactive are the calls of the source. No cut-off for these calls is given here.

What was measured:
[1] = tested on: Hamster; assay: Decrease in plasma triglyceride levels in dyslipidemic hamster model at 30 mg/kg after 7 days; format: functional, Cricetinae; set-up: scale not given: the % may be the effect or the level left
[2] = tested on: Hamster; assay: Decrease in plasma FFA levels in dyslipidemic hamster model at 50 mg/kg after 7 days; format: functional, Cricetinae; set-up: scale not given: the % may be the effect or the level left
[3] = tested on: Hamster; assay: Increase in plasma HDL-C levels in dyslipidemic hamster model at 50 mg/kg after 7 days; format: functional, Cricetinae
[4] = tested on: Hamster; assay: Decrease in plasma cholesterol levels in dyslipidemic hamster model at 30 mg/kg after 7 days; format: functional, Cricetinae; set-up: scale not given: the % may be the effect or the level left
[5] = tested on: Hamster; assay: Increase in ratio of plasma HDL to plasma cholesterol levels at 50 mg/kg after 7 days; format: functional, Cricetinae
[6] = tested on: Hamster; assay: Decrease in plasma cholesterol levels in dyslipidemic hamster model at 50 mg/kg after 7 days; format: functional, Cricetinae; set-up: scale not given: the % may be the effect or the level left
[7] = tested on: Hamster; assay: Increase in plasma HDL-C levels in dyslipidemic hamster model at 30 mg/kg after 7 days; format: functional, organism-based; set-up: dose 30 mg/kg; details: Cricetinae
[8] = tested on: Rattus norvegicus; assay: Increase in blood glucose levels in Sprague-Dawley Albino rat at 100 mg/kg, po after 5 hrs; format: functional
[9] = tested on: Hamster; assay: Decrease in plasma glycerol levels in dyslipidemic hamster model at 30 mg/kg after 7 days; format: functional, Cricetinae; set-up: scale not given: the % may be the effect or the level left
[10] = tested on: Hamster; assay: Decrease in plasma triglyceride levels in dyslipidemic hamster model at 50 mg/kg after 7 days; format: functional, Cricetinae; set-up: scale not given: the % may be the effect or the level left
[11] = tested on: Hamster; assay: Increase in ratio of plasma HDL to plasma cholesterol levels at 30 mg/kg after 7 days; format: functional, Cricetinae
[12] = tested on: Hamster; assay: Decrease in plasma glycerol levels in dyslipidemic hamster model at 50 mg/kg after 7 days; format: functional, Cricetinae; set-up: scale not given: the % may be the effect or the level left
[13] = tested on: Hamster; assay: Decrease in plasma FFA levels in dyslipidemic hamster model at 30 mg/kg after 7 days; format: functional, Cricetinae; set-up: scale not given: the % may be the effect or the level left
[14] = species: Homo sapiens; assay: Inhibition of PTPase
[15] = tested on: Rattus norvegicus; assay: Increase in blood glucose levels in Sprague-Dawley Albino rat at 100 mg/kg, po after 24 hrs; format: functional
[16] = species: Homo sapiens; assay: Inhibition of alpha-glucosidase
[17] = tested on: Hamster; assay: Decrease in plasma FFA levels in dyslipidemic hamster model at 108 mg/kg after 7 days; format: functional, Cricetinae; set-up: scale not given: the % may be the effect or the level left
[18] = tested on: Hamster; assay: Decrease in plasma cholesterol levels in dyslipidemic hamster model at 108 mg/kg after 7 days; format: functional, Cricetinae; set-up: scale not given: the % may be the effect or the level left
[19] = tested on: Hamster; assay: Decrease in plasma glycerol levels in dyslipidemic hamster model at 108 mg/kg after 7 days; format: functional, Cricetinae; set-up: scale not given: the % may be the effect or the level left
[20] = tested on: Hamster; assay: Increase in ratio of plasma HDL to plasma cholesterol levels at 108 mg/kg after 7 days; format: functional, Cricetinae
[21] = tested on: Hamster; assay: Increase in plasma HDL-C levels in dyslipidemic hamster model at 108 mg/kg after 7 days; format: functional, organism-based; set-up: dose 108 mg/kg; details: Cricetinae
[22] = tested on: Hamster; assay: Decrease in plasma triglyceride levels in dyslipidemic hamster model at 108 mg/kg after 7 days; format: functional, Cricetinae; set-up: scale not given: the % may be the effect or the level left

- Activity [14]: inactive
- Activity [16]: inactive
Structure (SMILES): COc1ccc([C@@H](O)CNC(=O)/C=C/c2ccccc2)cc1 [AEGELINE]
- Activity [1]: 48%
- Activity [2]: 24%
- Activity [3]: 28%
- Activity [4]: 17%
- Activity [5]: 66%
- Activity [6]: 24%
- Activity [7]: inactive
- Activity [8]: 12.9%
- Activity [9]: 23%
- Activity [10]: 55%
- Activity [11]: 20%
- Activity [12]: 31%
- Activity [13]: 14%
- Activity [15]: 16.9%

Structure (SMILES): CC(C)OC(=O)C(C)(C)Oc1ccc(C(=O)c2ccc(Cl)cc2)cc1 [FENOFIBRATE]
- Activity [17]: 20%
- Activity [18]: 18%
- Activity [19]: 36%
- Activity [20]: 10%
- Activity [21]: inactive
- Activity [22]: 42%

Structure (SMILES): CN(C)C(=N)NC(=N)N [METFORMIN]
- Activity [8]: 23.5%
- Activity [15]: 26.5%
